In patent US10669272B2, “Substituted naphthyridinone compounds useful as T cell activators” (BRISTOL-MYERS SQUIBB COMPANY, priority 2018, dated 2020):
Where two headings read alike, the source gives them in different places.

How the values were obtained:
human DGKα = target: T1, human DGKα (Homo sapiens, UniProt P23743); experiment: DGKα LIPGLO assay (extruded liposome substrate), in vitro DGK inhibition; format: biochemical; conditions: liposome (LIPGLO) assay; read-out: DGKa LIPGLO IC50
T1 construct: TVMV protease cleavage site (C); Hexa-His (C); made in house; host or cells: Sf9 insect cells (baculovirus, Bac-to-Bac)
T1 sequence (P23743 with tags, fused parts or gaps): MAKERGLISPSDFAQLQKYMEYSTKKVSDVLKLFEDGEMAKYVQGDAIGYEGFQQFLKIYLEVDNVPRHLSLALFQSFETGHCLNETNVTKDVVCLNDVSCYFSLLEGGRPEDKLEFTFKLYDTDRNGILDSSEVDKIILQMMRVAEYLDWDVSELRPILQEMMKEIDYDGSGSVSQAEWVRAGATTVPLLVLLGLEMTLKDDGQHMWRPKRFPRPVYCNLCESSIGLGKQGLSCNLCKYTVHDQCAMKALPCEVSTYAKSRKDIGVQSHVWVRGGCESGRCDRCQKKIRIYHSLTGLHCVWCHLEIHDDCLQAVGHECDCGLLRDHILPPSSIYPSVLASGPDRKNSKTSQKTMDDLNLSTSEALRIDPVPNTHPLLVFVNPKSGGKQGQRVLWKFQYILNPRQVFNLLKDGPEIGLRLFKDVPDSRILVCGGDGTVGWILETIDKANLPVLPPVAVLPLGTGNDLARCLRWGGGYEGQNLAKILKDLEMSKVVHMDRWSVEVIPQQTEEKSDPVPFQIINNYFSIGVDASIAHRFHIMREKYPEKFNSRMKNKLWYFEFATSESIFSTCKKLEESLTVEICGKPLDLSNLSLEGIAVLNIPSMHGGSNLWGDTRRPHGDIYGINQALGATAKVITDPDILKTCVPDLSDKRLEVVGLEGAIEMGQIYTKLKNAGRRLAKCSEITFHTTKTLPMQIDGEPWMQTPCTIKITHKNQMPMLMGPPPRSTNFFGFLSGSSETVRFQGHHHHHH

human DGKζ = target: T2, human DGKζ (Homo sapiens, UniProt Q13574); experiment: DGKζ LIPGLO assay (extruded liposome substrate), in vitro DGK inhibition; format: biochemical; conditions: liposome (LIPGLO) assay; read-out: DGKz LIPGLO IC50
T2 construct: TVMV protease cleavage site (C); Hexa-His (C); made in house; host or cells: Sf9 insect cells (baculovirus, Bac-to-Bac)
T2 sequence (Q13574 with tags, fused parts or gaps isoform Q13574-4): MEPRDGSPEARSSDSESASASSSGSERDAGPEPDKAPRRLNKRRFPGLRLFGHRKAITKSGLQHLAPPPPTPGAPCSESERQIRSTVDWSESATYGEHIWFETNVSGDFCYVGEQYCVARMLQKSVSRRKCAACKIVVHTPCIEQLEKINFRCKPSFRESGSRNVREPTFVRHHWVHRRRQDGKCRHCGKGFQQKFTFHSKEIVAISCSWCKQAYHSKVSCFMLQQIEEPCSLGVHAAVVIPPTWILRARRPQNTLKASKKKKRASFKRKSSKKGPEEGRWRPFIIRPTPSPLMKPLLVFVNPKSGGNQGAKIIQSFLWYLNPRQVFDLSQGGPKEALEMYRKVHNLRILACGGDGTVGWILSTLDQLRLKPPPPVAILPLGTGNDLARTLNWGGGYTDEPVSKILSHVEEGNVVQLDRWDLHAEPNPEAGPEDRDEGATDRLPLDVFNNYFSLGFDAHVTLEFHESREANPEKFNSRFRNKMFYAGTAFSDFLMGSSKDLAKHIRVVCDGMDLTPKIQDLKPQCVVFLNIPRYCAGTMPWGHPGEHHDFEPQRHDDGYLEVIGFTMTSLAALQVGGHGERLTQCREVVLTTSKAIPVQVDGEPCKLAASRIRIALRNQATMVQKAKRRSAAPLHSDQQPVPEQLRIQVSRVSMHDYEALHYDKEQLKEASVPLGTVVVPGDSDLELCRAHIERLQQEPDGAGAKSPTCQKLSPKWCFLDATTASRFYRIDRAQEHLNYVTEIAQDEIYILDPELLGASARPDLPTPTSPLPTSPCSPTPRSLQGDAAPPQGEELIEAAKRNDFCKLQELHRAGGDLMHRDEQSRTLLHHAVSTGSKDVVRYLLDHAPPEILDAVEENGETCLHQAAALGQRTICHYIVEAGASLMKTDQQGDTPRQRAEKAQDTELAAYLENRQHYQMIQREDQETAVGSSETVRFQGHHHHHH

[1] = tested on: OT-1 CD8+ T cells with SIINFEKL-loaded MC38 tumor cells; experiment: Murine cytotoxic T lymphocyte assay (IFN-γ, OT-1 CTL with MC38 tumor cells); format: cell-based, mouse; conditions: read-out: msCTL INFg IC50
Outline: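 OT-1 CD8+ T cells, expanded 5 days with OVA peptide (1 μg/mL) and mIL2, pretreated 1 h with DGK inhibitors, then co-cultured overnight at 37° C at 1:10 with MC38 cells pulsed 3 h with 1 μg/mL SIINFEKL. IFN-γ in 24 h supernatant by AlphaLISA.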

naïve human CD8 T cells = experiment: Human CD8 T cells IFN-γ assay; format: cell-based; conditions: normalized to 3 μM reference compound with anti-CD3 plus anti-CD28 as 100% activation, read-out: HuCD8 INFG Normalized EC50;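 further: Naïve human CD8 T cells stimulated with plate-bound anti-CD3 and soluble anti-CD28, IFN-γ in supernatant quantified by AlphaLISA and converted to pg/mL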
Human venous whole blood = experiment: Human whole blood IFN-γ assay; format: cell-based; conditions: human whole blood, normalized to 3 μM reference compound with anti-CD3 plus anti-CD28 as 100% activation, read-out: INFg Whole Blood Normalized Agonist EC50;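 further: blood from healthy donors exposed to compound for 1 h before stimulation with anti-CD3 and anti-CD28 at 1 µg/mL each, IFN-γ quantified in supernatant by AlphaLISA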

| IC50 (human DGKα) | IC50 (human DGKζ) | Compound | IC50 ([1]; Mus musculus, MC-38) | EC50 (naïve human CD8 T cells; Homo sapiens, T-cell, 20 h) | EC50 (Human venous whole blood; Homo sapiens, 24 h) | IC50 [1] | EC50 (naïve human CD8 T cells) | EC50 (Human venous whole blood) |
| --- | --- | --- | --- | --- | --- | --- | --- | --- |
| 4600 nM | 2100 nM | C[C@@H]1CN(c2cc(=O)n(C)c3ccc(C#N)nc23)CCN1C(c1ccc(F)cc1)c1ccc(F)cc1 [Example 28, (R)-8-(4-(bis(4-fluorophenyl)methyl)-3-methylpiperazin-1-yl)-5-methyl-6-oxo-5,6-dihydro-1,5-naphthyridine-2-carbonitrile] | 570 nM | 38 nM | 5300 nM | – | – | – |
| 40000 nM | 200 nM | Cn1c(=O)cc(N2CCN(C(c3ccc(F)cc3)c3ccc(F)cc3)C(C(=O)OC3CC3)C2)c2nc(C#N)ccc21 (single isomer, unassigned) [Example 107, cyclopropyl 1-(bis(4-fluorophenyl)methyl)-4-(6-cyano-1-methyl-2-oxo-1,2-dihydro-1,5-naphthyridin-4-yl)piperazine-2-carboxylate] | – | – | – | 750 nM | 27 nM | 11000 nM |
| 3000 nM | 480 nM | Cn1c(=O)cc(N2CCN(C(c3ccc(F)cc3)c3ccc(F)cc3)C(CO)C2)c2nc(C#N)ccc21 (single isomer, unassigned) [Example 1, 8-(4-(bis(4-fluorophenyl)methyl)-3-(hydroxymethyl)piperazin-1-yl)-5-methyl-6-oxo-5,6-dihydro-1,5-naphthyridine-2-carbonitrile] | – | – | – | 230 nM | 96 nM | 820 nM |
